Laboratory results: ChEMBL document CHEMBL1201862, “PubChem BioAssay data set” (2004)
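Test compounds were applied to cells in 96-well plates for 48 hours at 5 doses. GI50: concentration for 50% inhibition of growth.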 Calls of active or inactive are those of the source. Cut-off read from the data, not from the text of the source: active = GI50 up to about 1.1 µM and inactive = higher.

Experiments:
Test in all cases: inhibition of tumour cell growth, NCI panel, 48 h
[1] = system: SF-295
[2] = system: Hs-578T
[3] = system: LOX IMVI
[4] = system: RXF 393
[5] = system: OVCAR-4
[6] = system: HT-29
[7] = system: M14
[8] = system: SK-MEL-2
[9] = system: UO-31
[10] = system: SW-620
[11] = system: NCI/ADR-RES
[12] = system: U-251
[13] = system: NCI-H23
[14] = system: UACC-62
[15] = system: NCI-H460
[16] = system: PC-3
[17] = system: IGROV-1
[18] = system: 786-0
[19] = system: OVCAR-8
[20] = system: A498
[21] = system: MOLT-4
[22] = system: HCT-15
[23] = system: MDA-MB-435
[24] = system: Malme-3M
[25] = system: DU-145
[26] = system: MDA-MB-231
[27] = system: T47D
[28] = system: SF-539
[29] = system: SNB-19
[30] = system: NCI-H226
[31] = system: OVCAR-3
[32] = system: SF-268
[33] = system: SNB-75
[34] = system: UACC-257
[35] = system: NCI-H522
[36] = system: SK-MEL-28
[37] = system: HCC 2998
[38] = system: MDA-N
[39] = system: COLO 205
[40] = system: A549
[41] = system: SR
[42] = system: SK-MEL-5
[43] = system: TK-10
[44] = system: OVCAR-5
[45] = system: HL-60
[46] = system: MCF7
[47] = system: KM12
[48] = system: SN12C
[49] = system: ACHN
[50] = system: HOP-92
[51] = system: K562
[52] = system: HOP-62
[53] = system: CAKI-1
[54] = system: HCT-116
[55] = system: SK-OV-3

COc1ccc(S(=O)(=O)Nc2ccc(-c3csc(N4C(=O)/C(=C/c5cccs5)N=C4c4ccccc4)n3)cc2)cc1Cl
GI50 [1]: 10.4 µM (inactive) | GI50 [2]: 35.2 µM (inactive) | GI50 [3]: 37 µM (inactive) | GI50 [4]: 29.5 µM (inactive) | GI50 [5]: 40.2 µM (inactive) | GI50 [6]: > 100 µM (inactive) | GI50 [7]: 34.7 µM (inactive) | GI50 [8]: 40.4 µM (inactive) | GI50 [9]: 28.1 µM (inactive) | GI50 [10]: 50.9 µM (inactive) | GI50 [11]: 39.4 µM (inactive) | GI50 [12]: 34.9 µM (inactive) | GI50 [13]: 21.5 µM (inactive) | GI50 [14]: 31.1 µM (inactive) | GI50 [15]: 41.1 µM (inactive) | GI50 [16]: 34.8 µM (inactive) | GI50 [17]: 30.5 µM (inactive) | GI50 [18]: 57.5 µM (inactive) | GI50 [19]: 34 µM (inactive) | GI50 [20]: 24.3 µM (inactive) | GI50 [21]: 32.8 µM (inactive) | GI50 [22]: 24.9 µM | GI50 [23]: 44 µM (inactive) | GI50 [24]: 32.3 µM (inactive) | GI50 [25]: 42.2 µM (inactive) | GI50 [26]: 32.4 µM (inactive) | GI50 [27]: 19.9 µM (inactive) | GI50 [28]: 54.2 µM (inactive) | GI50 [29]: 49.7 µM (inactive) | GI50 [30]: 65.5 µM (inactive) | GI50 [31]: 43.6 µM (inactive) | GI50 [32]: 30.5 µM (inactive) | GI50 [33]: 44.8 µM (inactive) | GI50 [34]: 46.3 µM (inactive) | GI50 [35]: 22.3 µM (inactive) | GI50 [36]: 65.5 µM (inactive) | GI50 [37]: 44.7 µM (inactive) | GI50 [38]: 34.1 µM (inactive) | GI50 [39]: 40.6 µM (inactive) | GI50 [40]: 38.9 µM (inactive) | GI50 [41]: 28.6 µM (inactive) | GI50 [42]: 40.8 µM (inactive) | GI50 [43]: 56.1 µM (inactive) | GI50 [44]: > 100 µM (inactive) | GI50 [45]: 24.5 µM (inactive) | GI50 [46]: 46.9 µM (inactive) | GI50 [47]: 49.1 µM (inactive) | GI50 [48]: 66.2 µM (inactive) | GI50 [49]: 35.4 µM (inactive) | GI50 [50]: 22.5 µM (inactive) | GI50 [51]: 38.7 µM (inactive) | GI50 [52]: 4.08 µM (inactive) | GI50 [53]: > 100 µM (inactive) | GI50 [54]: 30.9 µM (inactive) | GI50 [55]: > 100 µM (inactive)
